{"source": "patent US20140243415A1", "about": "“COMPOUNDS INHIBITING GALECTIN-1 EXPRESSION, CANCER CELL PROLIFERATION, INVASION, AND TUMORIGENESIS” (ONCOETHIX SA, priority 2011, published 2014)", "assay_type_in_all_cases": "cell-based, human", "key": {"[1]": {"test_system": "A2780-1A9", "test": "MTT cell cytotoxicity assay", "experimental": "(§1) Cell survival was determined using the MTT assay (3-[4,5-dimethylthiazol-2-yl]-2,5-diphenyltetrazolium bromide; Sigma, Saint-Quentin Fallavier, France). The conversion of yellow water-soluble tetrazolium MTT into purple insoluble formazan is catalyzed by mitochondrial dehydrogenases and used to estimate the number of viable cells. In brief, cells were seeded in 96-well tissue culture plates at a density of 2×10^3 cells/well. After 72 h drug exposure and 48 h wash-out, cells were incubated with 0.4 mg/ml MTT for 4 hours at 37° C. After incubation, the supernatant was discarded, insoluble formazan precipitates were dissolved in 0.1 ml of DMSO and the absorbance was measured at 560 nm by use of a microplate reader (Thermo, France). Wells with untreated cells or with drug-containing medium without cells were used as positive and negative controls respectively. IC50's were determined as the halves of maximal inhibitory drug concentration for each cell line.\n(§2) The antiproliferative effects of OTX-008 and anginex were assessed using MTT assay in a panel of human cancer cell lines of human origins expressing various levels of Lgals-1 mRNA and galectin-1 protein expressions (Supplementary Table 1). […] Remaining cell lines were less sensitive to OTX-008 with GI50 values >9 μM. […] No correlation between mRNA expressions of galectin-2, galectin-3, and galectin-8 as well as semaphorin-3A, semaphorin-3B, neuropilin-1, VEGFR1-3, VEGFA-D, and PDGFRa&P3 and sensitivity to OTX-008 were detected in the panel."}, "[2]": {"test_system": "OVCAR3", "test": "MTT cell cytotoxicity assay", "conditions": "72 h drug exposure and 48 h wash-out", "experimental": "as §1, §2"}, "[3]": {"test_system": "SQ20B", "test": "MTT cell cytotoxicity assay", "experimental": "as §1, §2"}, "[4]": {"test_system": "COL0205-S and COL0205-R cells", "test": "Antiproliferative effects, epithelial vs mesenchymal COLO205", "description": "(§3) FIG. 2. Epithelial-to-mesenchymal differentiation and OTX-008 sensitivity. A—Correlations between galectin-1 (LGALS1) and vimentin, E-cadherin (CDH1) and N-cadherin (CDH2) relative mRNA expression. B—Correlations between OTX-008 IC50s and vimentin, E-cadherin (CDH1) and N-cadherin (CDH2) relative mRNA expression. C—Antiproliferative effects of OTX-008 in epithelial COLO205-S and mesenchymal COLO205-R colon cancer cells. D—Antiproliferative effects of OTX-008 in SNAIL-inducible colon cancer cell lines. E—Antiproliferative effects of OTX-008 in shWISP breast cancer cell lines.\nas §1, with “After 72 h drug exposure and 48 h wash-out, cells were incubated with 0.4 mg/ml MTT for 4 hours at 37° C.” left out, “Wells with untreated cells or with drug-containing medium without cells were used as positive and negative controls respectively.” left out, “line. […]” for “line.”"}, "[5]": {"test_system": "MCF7-shWISP", "test": "Antiproliferative effects, shWISP model", "conditions": "MCF7-shWISP vs MCF7", "description": "as §3\nas §1, with “After 72 h drug exposure and 48 h wash-out, cells were incubated with 0.4 mg/ml MTT for 4 hours at 37° C.” left out, “Wells with untreated cells or with drug-containing medium without cells were used as positive and negative controls respectively.” left out, “line. […]” for “line.”"}, "[6]": {"test_system": "p-AKT", "test": "Western blot of signaling in SQ20B cells", "conditions": "3 μM OTX-008, 10 min to 24 h", "experimental": "(§4) FIG. 3. Effects of OTX-008 on galectin-1 expression and localization. A—Western Blot of galectin-1 on SQ20B cells treated with 3 μM OTX-008 for 24 h, 48 h and 72 h. B and C—Immunofluorescence of galectin-1 on SQ20B cells treated with 3 μM OTX-008 for 24 and 48 h. B—OTX-008 treatment decreases galectin-1 immunostaining in SQ20B cells. C—Galectin-1 translocates into the nucleus after OTX-008 exposure. D—Western Blot of p-AKTser473, AKT, p-S6, p-ERK1/2, ERK and p-PKCα in SQ20B cells treated with 3 μM OTX-008 for 10 min, 1 h, 2 h, 5 h and 24 h.\n(§5) Cells were lysed in buffer containing 50 mM HEPES (pH 7.6), 150 mM NaCl, 1% Triton X-100, 2 mM sodium vanadate, 100 mM NaF, and 0.4 mg/ml phenylmethylsulfonyl fluoride. Equal amounts of protein (30 μg/lane) were subjected to SDS-PAGE and transferred to nitrocellulose membranes. Membranes were blocked with 5% milk in 0.05% Tween 20/phosphate-buffered saline and then incubated with the primary antibody overnight. Membranes were then washed and incubated with the secondary antibody conjugated to horseradish peroxidase. Bands were visualized by using the enhanced chemiluminescence Western blotting detection system. Densitometric analysis was performed under conditions that yielded a linear response. The following antibodies were used: anti-p-cdc2 (tyr15), anti-p-wee1 (ser642), anti-p-p44/42 MAPK (thr202/tyr204), anti-p44/42, anti-p-AKT (ser473), anti-AKT, anti-p-S6 (ser235/236) (Cell Signaling, Saint Quentin Yvelines, France), anti-p-PKCα (ser657) (BD Biosciences, Le-Pont-de-Claix, France) and anti-galectin-1 (Abcam, Cambridge, Mass., USA). All antibodies were used at a 1:1000 dilution.\n(§6) Intracytoplasmic galectin-1 was previously shown to stabilize intracellular GTP-Ras conformation, facilitating Ras downstream signaling. Signaling events following OTX-008 exposure in SQ20B cells displaying no EGFR, K-Ras, and B-Raf mutation were investigated (FIG. 5A)."}, "[7]": {"test_system": "p-ERK1/2", "test": "Western blot of signaling in SQ20B cells", "conditions": "3 μM OTX-008, 10 min to 24 h", "experimental": "as §4, §5, §6"}, "[8]": {"test_system": "p-S6", "test": "Western blot of signaling in SQ20B cells", "conditions": "3 μM OTX-008, 10 min to 24 h", "experimental": "as §4, §5, §6"}, "[9]": {"conditions": "72 h drug exposure and 48 h wash-out"}}}
{"smiles": "CN(C)CCNC(=O)COc1c2cccc1Cc1cccc(c1OCC(=O)NCCN(C)C)Cc1cccc(c1OCC(=O)NCCN(C)C)Cc1cccc(c1OCC(=O)NCCN(C)C)C2", "note": "[OTX-008]", "values": [{"measurement": "sensitivity to OTX-008", "setting": "[1]", "result": "only marginally sensitive"}, {"measurement": "antiproliferative effects (MTT)", "setting": "[1]; [9]", "result": "dose-dependent antiproliferative effects"}, {"measurement": "antiproliferative effects (MTT)", "setting": "[2]", "result": "dose-dependent antiproliferative effects"}, {"measurement": "sensitivity to OTX-008 among the cell lines tested", "setting": "[3]", "result": "most sensitive"}, {"measurement": "antiproliferative effects (MTT)", "setting": "[3]; [9]", "result": "dose-dependent antiproliferative effects"}, {"measurement": "activity in epithelial vs mesenchymal cells", "setting": "[4]", "result": "markedly more active in COL0205-S cells than in COL0205-R cells"}, {"measurement": "effect of WISP inhibition on sensitivity", "setting": "[5]", "result": "marked resistance to high concentrations of the drug"}, {"measurement": "AKT ser473 phosphorylation", "setting": "[6]", "result": "transient activation of AKT^s473 followed by a complete and sustained inhibition of p-AKT"}, {"measurement": "p-ERK1/2 activity", "setting": "[7]", "result": "progressively but sustainably inhibited p-ERK1/2 activity"}, {"measurement": "p-S6", "setting": "[8]", "result": "complete and sustained inhibition"}]}
